Columns and labels:
[1] = test system: Rat; experiment: Test for acute toxicity, rat; settings: for Animals which died: 6 animals
Protocol: The acute toxicity was determined after oral administration of substance B to male and female mice, rats and dogs. The substance was administered to mice and rats in the form of a suspension in tylose and to dogs in the form of a solution in water.

[2] = test system: rats; experiment: Ulcerogenic effect in rats; assay type: in vivo, Chbb:THOM-rats; settings: 200 mg/kg p.o.
Protocol: 200 mg/kg of substance B in 1% tylose suspension were administered perorally to 10 male and female (1:1) Chbb:THOM-rats (SPF) having an approximate body weight of 200 gm. A control group received only the suspension agent. After 4 hours all animals were killed, the stomach was dissected and inspected with regard to lesions of the mucosa.

[3] = test system: mice; experiment: Ability of mice to hold themselves in rotating cylinders (muscle relaxing and/or ataxic effect); assay type: in vivo, Chbb:NMRI-mice; settings: 400 mg/kg p.o.; for Animals which fell out: N = 10
Protocol: In analogy to the method described by Young and Lewis [Science 105, 368 (1947)], 10 female Chbb:NMRI-mice (SPF) having a body weight of 20-26 gm were tested to determine whether they were able to hold themselves in rotating cylinders after oral administration of 400 mg/kg of substance in aqua dist. The measurements were carried out 30-60, 90-120, 210-240 and 270-300 minutes after administration.

[4] = test system: beagles; experiment: Test for subacute toxicity in the dog; settings: in vivo
Protocol: The test was carried out in each 3 male and 3 female beagles. Over a period of 5 weeks 750 mg/kg of substance B were administered orally.
After the test period of 5 weeks the animals were killed and the same organs as above were taken for histological examination.

[5] = test system: Trychophyton mentagrophytes ATCC 9129; experiment: Fungistasis, serial dilution test; assay type: cell-based; settings: 320 μg/ml
Protocol: (§1) Substance B was tested with regard to its bacteria- and fungi-inhibiting effect by the serial dilution test and agar diffusion test.

[6] = Stability of the solid substance in daylight and at 60° C.; assay type: physicochemical; settings: daylight and 60° C., absence and presence of light, 4 weeks
Protocol: For the stability test, substance B at a concentration of 1% was dissolved in 0.1 N hydrochloric acid and kept at room temperature for 27 days. […] The solid substance was furthermore tested in daylight and at 60° C. in the absence and in the presence of light for 4 weeks.

[7] = test system: Sc. pyogenes ATCC 8688; experiment: Bacteriostasis, agar diffusion test; assay type: cell-based; settings: 16,000 μg/ml
Protocol: as §1

[8] = test system: Streptococcus Aronson; experiment: Bacteriostasis, agar diffusion test; assay type: cell-based; settings: 16,000 μg/ml
Protocol: as §1

[9] = test system: Pseudomonas aeruginosa Hbg.; experiment: Bacteriostasis, agar diffusion test; assay type: cell-based; settings: 16,000 μg/ml
Protocol: as §1

[10] = test system: Escherichia coli ATCC 9637; experiment: Bacteriostasis, agar diffusion test; assay type: cell-based; settings: 16,000 μg/ml
Protocol: as §1

[11] = test system: Serratia marcescens ATCC 13880; experiment: Bacteriostasis, agar diffusion test; assay type: cell-based; settings: 16,000 μg/ml
Protocol: as §1

[12] = test system: Staphylococcus aureus SG 511; experiment: Bacteriostasis, agar diffusion test; assay type: cell-based; settings: 16,000 μg/ml
Protocol: as §1

[13] = test system: taste testers; experiment: Determination of the threshold concentration (sweet taste); assay type: in vivo
Protocol: Aqueous solutions having concentrations of 1:12,500, 1:25,000, 1:50,000, and 1:100,000 were prepared of test compounds A, B and C and of comparison compounds X, Y and Z, and each was evaluated at 5 taste testers according to the following scoring system: Very sweet (=3 points), medium sweet (=2 points), weakly sweet (=1 point), and not sweet (=0 point). The tests were carried out as described by H. G. Schutz and F. J. Pilgrim in Food Research 22, 206 (1957). The dilution perceptible as sweet was defined as having the concentration at which the average value of the evaluation points reached 1.0 or more.

[14] = test system: rats; experiment: Effect on choleresis in rats; assay type: in vivo, Chbb:THOM-rats
Protocol: A cannula was tied to the ductus choledochus of anesthetized, fasted male Chbb:THOM-rats (SPF) having a body weight of 180-220 gm, and the rate of flow of bile liquid was registered via a drop counter. 100 or 200 mg/kg of substance B in aqua dist. solution were administered intraduodenally to each of 10 animals. A control group received only the solvent. The number of the drops received within 1 hour before the treatment was compared with the number of the drops received within 1-5 hours after treatment.
In Table 10 the average number of drops 1-5 hours after treatment is shown in percent, compared with the values before treatment.

[15] = test system: rats; experiment: Effect on diuresis in water-loaded rats; assay type: in vivo, Chbb:THOM-rats; settings: for Cl^- excretion / K^+ excretion / Na^+ excretion / Urine: 5 hours
Protocol: Male Chbb:THOM-rats (SPF) having a body weight of 180-210 gm were kept away from food with free access to water for 24 hours before the test. Substance B was administered orally at dosages of 50, 100 and 200 mg/kg in aqua dist. solution of the rate of 1 ml/100 gm body weight to 6 animals/dose. Additionally, 4 ml water/100 gm body weight were administered orally. A control group received only the solvent and the same additional amount of water.
Five hours after treatment, the excreted volume of urine of each group was measured, and the concentration of Na^+, K^+ and Cl^- was determined photometrically and complexometrically.

O=C1NS(=O)(=O)c2cccc(O)c21.[Na]
Animals which died ([1]; 10 g/kg oral, 1 day): 0
Animals which died ([1]; 10 g/kg oral, 7 days): 0
Animals which died ([1]; 10 g/kg oral, 14 days): 0
deaths (in words) ([1]; 10 g/kg oral, during the observation time): no animals died
behavior ([1]; rat, in vivo, po): completely normal behavior
toxic symptoms ([1]; rat, in vivo, po): no toxic symptoms could be observed
ulcerogenic effect (in words) [2]: does not show any ulcerogenic effect in rats
Animals having stomach lesions ([2]; 4 hours, N = 10): 0
effect on holding ability of mice (in words) [3]: does not affect the holding ability of mice
muscle relaxing or coordination inhibiting effect (in words) [3]: no muscle relaxing or coordination inhibiting effect
Animals which fell out ([3]; 30-60 min): 2
Animals which fell out ([3]; 90-120 min): 2
Animals which fell out ([3]; 210-240 min): 1
Animals which fell out ([3]; 270-300 min): 0
behavior [4]: did not show any abnormal behavior
histological examination of organs [4]: No changes could be observed
spontaneous deaths [4]: Spontaneous deaths could not be observed
inhibiting effect [5]: did not show any inhibiting effect
stability of solid substance [6]: No changes could be detected either
inhibiting effect [7]: did not show any inhibiting effect
inhibiting effect [8]: did not show any inhibiting effect
inhibiting effect [9]: did not show any inhibiting effect
inhibiting effect [10]: did not show any inhibiting effect
inhibiting effect [11]: did not show any inhibiting effect
inhibiting effect [12]: did not show any inhibiting effect
Average value of evaluation points ([13]; concentration 1:25000): 2.6 points
Average value of evaluation points ([13]; concentration 1:50000): 1.2 points
Average value of evaluation points ([13]; concentration 1:100000): 0.0 points
Choleresis in %, compared with the values before treatment ([14]; 100 mg/kg i.d., 1 hour): 97%
Choleresis, average number of drops ([14]; 100 mg/kg i.d., 1 hour): 53.3 drops/ hr
Choleresis in %, compared with the values before treatment ([14]; 100 mg/kg i.d., 2 hours): 94%
Choleresis, average number of drops ([14]; 100 mg/kg i.d., 2 hours): 51.7 drops/ hr
Choleresis in %, compared with the values before treatment ([14]; 100 mg/kg i.d., 3 hours): 92%
Choleresis, average number of drops ([14]; 100 mg/kg i.d., 3 hours): 50.7 drops/ hr
Choleresis in %, compared with the values before treatment ([14]; 100 mg/kg i.d., 4 hours): 91%
Choleresis, average number of drops ([14]; 100 mg/kg i.d., 4 hours): 49.9 drops/ hr
Choleresis in %, compared with the values before treatment ([14]; 100 mg/kg i.d., 5 hours): 90%
Choleresis, average number of drops ([14]; 100 mg/kg i.d., 5 hours): 49.5 drops/ hr
Choleresis in %, compared with the values before treatment ([14]; 200 mg/kg i.d., 1 hour): 94%
Choleresis, average number of drops ([14]; 200 mg/kg i.d., 1 hour): 44.1 drops/ hr
Choleresis in %, compared with the values before treatment ([14]; 200 mg/kg i.d., 2 hours): 92%
Choleresis, average number of drops ([14]; 200 mg/kg i.d., 2 hours): 43.1 drops/ hr
Choleresis in %, compared with the values before treatment ([14]; 200 mg/kg i.d., 3 hours): 92%
Choleresis, average number of drops ([14]; 200 mg/kg i.d., 3 hours): 43.1 drops/ hr
Choleresis in %, compared with the values before treatment ([14]; 200 mg/kg i.d., 4 hours): 92%
Choleresis, average number of drops ([14]; 200 mg/kg i.d., 4 hours): 43.5 drops/ hr
Choleresis in %, compared with the values before treatment ([14]; 200 mg/kg i.d., 5 hours): 94%
Choleresis, average number of drops ([14]; 200 mg/kg i.d., 5 hours): 44.4 drops/ hr
effect on choleresis (in words) ([14]; 100 and 200 mg/kg i.d.): does not show any intraduodenal effects on choleresis in rats
Cl^- excretion ([15]; 50 mg/kg p.o.): 616.4 Microval/kg
K^+ excretion ([15]; 50 mg/kg p.o.): 456.6 Microval/kg
Na^+ excretion ([15]; 50 mg/kg p.o.): 456.6 Microval/kg
Urine ([15]; 50 mg/kg p.o.): 45.7 mL/kg
Cl^- excretion ([15]; 100 mg/kg p.o.): 325.5 Microval/kg
K^+ excretion ([15]; 100 mg/kg p.o.): 321.5 Microval/kg
Na^+ excretion ([15]; 100 mg/kg p.o.): 401.9 Microval/kg
Urine ([15]; 100 mg/kg p.o.): 40.2 mL/kg
Cl^- excretion ([15]; 200 mg/kg p.o.): 535.7 Microval/kg
K^+ excretion ([15]; 200 mg/kg p.o.): 425.1 Microval/kg
Na^+ excretion ([15]; 200 mg/kg p.o.): 467.6 Microval/kg
Urine ([15]; 200 mg/kg p.o.): 42.5 mL/kg
effect on diuresis (in words) ([15]; 50, 100 and 200 mg/kg p.o.): does not show any effect on diuresis in rats

— US4404230A, “4-Hydroxy-1,2-Benzisothiazol-3(2H)-one-1,1-dioxides and salts thereof” (priority 1980, dated 1983)
